Source: US7829325B2, “Drug testing with bio-artificial organ slices including for example those derived from liver” (HepaHope, Inc., priority 2003, dated 2010)

Tests used:
liver slices [1] = details: 20 mg loading dose; all trials; in presence of HL 100; FIG. 5
liver slices [2] = system: liver slices
[3] = 2 mg lidocaine dose, continuous and intermittent (1:3) perfusion, in presence of HL 100, FIG. 3A

time of maximal ammonia clearance (liver slices [1]) | SMILES | lidocaine levels within 30 minutes (liver slices [2]; 2 mg dose, 6 hour trials and continuous perfusion 24 hour trial, exposed to HL 100, FIG. 3B) | level of lidocaine at 120 minutes (liver slices [2]; [3]) | level of lidocaine at approximately 30 minutes after lidocaine loading (liver slices [2]; [3])
approximately 30 minutes | N [ammonia] | – | – | –
– | CCN(CC)CC(=O)Nc1c(C)cccc1C [lidocaine] | approximately 0.8 μg | approximately 0.5 :g | approximately 0.9 μg
